From ChEMBL document CHEMBL1201862, “PubChem BioAssay data set” (2004)
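96-well plates; 48 h exposure; 5 concentrations. Endpoints by linear interpolation between flanking doses. Not reached: highest tested concentration assigned. GI50: concentration for 50% inhibition of growth.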 Calls of active or inactive are those of the source. No stated cut-off is given here; in the data, active = GI50 up to about 1.1 µM and inactive = higher.

Columns and labels:
Assay in all cases: NCI anticancer screen, dose series, 48 h
[1] = test system: MCF7
[2] = test system: SW-620
[3] = test system: KM12
[4] = test system: MOLT-4
[5] = test system: OVCAR-4
[6] = test system: OVCAR-3
[7] = test system: SF-539
[8] = test system: SN12C
[9] = test system: IGROV-1
[10] = test system: OVCAR-8
[11] = test system: RPMI-8226
[12] = test system: CAKI-1
[13] = test system: DU-145
[14] = test system: EKVX
[15] = test system: PC-3
[16] = test system: COLO 205
[17] = test system: SF-268
[18] = test system: RXF 393
[19] = test system: A498
[20] = test system: SK-OV-3

Measured: GI50

NCCC(=O)NC(Cc1c[nH]cn1)C(=O)O (centres undefined)
inactive: [1] > 100 µM | [2] > 100 µM | [3] > 100 µM | [4] > 100 µM | [5] > 100 µM | [6] > 100 µM | [7] > 100 µM | [8] > 100 µM | [9] > 100 µM | [10] > 100 µM | [11] > 100 µM | [12] > 100 µM | [13] > 100 µM | [14] > 100 µM | [15] > 100 µM | [16] > 100 µM | [17] > 100 µM

CCOC(=O)NC(=O)c1cn(CCN(CCO)C(=O)NCCCCCCNC(=O)N(CCO)CCn2cc(C(=O)NC(=O)OCC)c(=O)[nH]c2=O)c(=O)[nH]c1=O
inactive: [1] > 100 µM | [2] > 100 µM | [3] > 100 µM | [4] > 100 µM | [5] > 100 µM | [18] > 100 µM | [6] > 100 µM | [7] > 100 µM | [8] > 100 µM | [19] > 100 µM | [9] > 100 µM | [10] > 100 µM | [11] > 100 µM | [12] > 100 µM | [14] > 100 µM | [16] > 100 µM | [17] > 100 µM

O=C(OCC(OC(=O)c1ccccc1)C(OC(=O)c1ccccc1)C(OC(=O)c1ccccc1)c1cnn(-c2ccccc2)n1)c1ccccc1 (centres undefined)
inactive: [1] > 100 µM | [2] > 100 µM | [3] > 100 µM | [4] > 100 µM | [5] > 100 µM | [18] > 100 µM | [6] > 100 µM | [7] > 100 µM | [8] > 100 µM | [19] > 100 µM | [9] > 100 µM | [20] > 100 µM | [10] > 100 µM | [11] > 100 µM | [12] > 100 µM | [13] > 100 µM | [14] > 100 µM | [16] > 100 µM | [17] > 100 µM

CC(C)NC(=O)OCc1c2c(n(C)c1COC(=O)NC(C)C)-c1ccccc1CC2
inactive: [1] 10.5 µM | [2] 9.2 µM | [3] 15.5 µM | [4] 2.61 µM | [5] 15 µM | [18] 12.5 µM | [6] 14.2 µM | [7] 15.4 µM | [8] 13 µM | [19] 23.4 µM | [9] 14 µM | [20] 15.7 µM | [10] 12 µM | [11] 3.23 µM | [12] 9.14 µM | [14] 14.9 µM | [16] 8.05 µM | [17] 10.2 µM

COc1ccc(C(=O)Cc2ccc(Br)cc2)cc1OC
inactive: [2] > 100 µM | [4] > 100 µM | [5] > 100 µM | [18] 72.8 µM | [6] > 100 µM | [7] > 100 µM | [8] > 100 µM | [19] 40.4 µM | [9] > 100 µM | [20] > 100 µM | [10] > 100 µM | [11] > 100 µM | [12] > 100 µM | [14] > 100 µM | [17] > 100 µM

COc1ccc(-c2nc(Sc3c([N+](=O)[O-])ncn3C)n[nH]2)cc1
inactive: [2] 3.26 µM | [3] 1.99 µM | [4] 2.85 µM | [5] 8.24 µM | [18] 1.77 µM | [6] 1.94 µM | [7] 1.87 µM | [8] 2.64 µM | [19] 10.5 µM | [9] 4.12 µM | [20] 4.17 µM | [10] 2.44 µM | [11] 3.66 µM | [12] 4.35 µM | [14] 20.7 µM | [16] 1.82 µM | [17] 3.94 µM

C/C(=N/Nc1ccc([N+](=O)[O-])cc1[N+](=O)[O-])C(CC(C(=O)NCc1ccccc1)/C(C)=N\Nc1ccc([N+](=O)[O-])cc1[N+](=O)[O-])C(=O)NCc1ccccc1 (centres undefined)
inactive: [2] 10.8 µM | [3] 4.86 µM | [5] 2.4 µM | [18] 4.24 µM | [6] 11.3 µM | [7] 4.06 µM | [8] 4.05 µM | [19] 14.8 µM | [9] 13.7 µM | [20] 15.6 µM | [10] 2.14 µM | [11] 14.7 µM | [12] 7.03 µM | [14] 12.7 µM | [16] 13.5 µM | [17] 4.42 µM

CCCCNC(=O)Cn1c2ccc(Br)cc2c2nc3ccccc3nc21
inactive: [2] > 100 µM | [3] > 100 µM | [4] > 100 µM | [18] > 100 µM | [6] > 100 µM | [8] 84.3 µM | [19] > 100 µM | [9] > 100 µM | [10] 33.3 µM | [11] > 100 µM | [12] 57.3 µM | [13] > 100 µM | [15] > 100 µM | [16] > 100 µM | [17] 97.1 µM
